Structures are written as SMILES.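 Step 1: Grow cells in 96-well plates. Step 2: Expose to compound for 48 hours at 5 concentrations. Step 3: Interpolate endpoints linearly; if unreached, use highest concentration. At the GI50, growth is halved.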 The source made the active and inactive calls. No stated cut-off is given here; in the data, active = GI50 up to about 1.1 µM and inactive = higher. Bounds are passed on as bounds.

Experimental findings from ChEMBL document CHEMBL1201862, “PubChem BioAssay data set” (2004) are described below.

Among the test systems are NCI-H23; SK-MEL-28; SF-295; LOX IMVI; DU-145; A498; HCC 2998; OVCAR-8; HOP-62; SN12C; HOP-92; TK-10; SK-OV-3; Malme-3M; SF-539; RPMI-8226; MDA-N; OVCAR-4; MOLT-4; MDA-MB-231.
What all share (test): NCI anticancer screen, dose series, 48 h

For the compound `COC1(C(C)(C)C)C=C(C(C)(C)C)P(=O)(O)O1` (stereo not given), the GI50 in the assay with NCI-H23, in the assay with SK-MEL-28, with SF-295, in the assay on LOX IMVI, in the assay on DU-145 and in the assay on A498 was > 100 µM (inactive) each time. Further, the GI50 in the assay with HCC 2998 is 15.7 µM (inactive); with OVCAR-8, > 100 µM (inactive); in the assay on HOP-62 it was > 100 µM (inactive); in the assay on SN12C it was > 100 µM (inactive); in the assay on HOP-92, > 100 µM (inactive); in the assay on TK-10, > 100 µM (inactive). In addition, the GI50 in the assay on SK-OV-3, in the assay with Malme-3M, with SF-539, in the assay with RPMI-8226, in the assay on MDA-N and with OVCAR-4 was > 100 µM (inactive) throughout.

With `COc1ccc2c3c([nH]c2c1)CCN(Cc1ccccc1)C3`, the GI50 in the assay on NCI-H23 was 42.3 µM (inactive); with SK-MEL-28, 18.8 µM (inactive); with SF-295, 11.5 µM (inactive); in the assay with LOX IMVI, 15.8 µM (inactive); in the assay on DU-145, > 100 µM (inactive); with A498, 15.1 µM (inactive). Also, the GI50 was 19.1 µM (inactive) in the assay on HCC 2998; 48.3 µM (inactive) in the assay on OVCAR-8; 24.8 µM (inactive) in the assay with MOLT-4; 21.8 µM (inactive) with HOP-62; 34 µM (inactive) in the assay on SN12C; 4.35 µM (inactive) with HOP-92. The GI50 in the assay on TK-10 is 24.4 µM (inactive); in the assay with SK-OV-3, > 100 µM (inactive); in the assay on Malme-3M, 18.7 µM (inactive); in the assay with SF-539, 16.1 µM (inactive); in the assay with RPMI-8226 it was 22.8 µM (inactive); with MDA-MB-231, 28.9 µM (inactive). In addition, the GI50 in the assay on OVCAR-4 was 62.8 µM (inactive).

In the case of `CCCCCCCCCc1cc(-c2ccc(C=O)s2)sc1-c1ccc(C=O)s1`, the GI50 with NCI-H23 was 20.1 µM (inactive); in the assay on SK-MEL-28, 33.7 µM (inactive); in the assay with SF-295, 32.7 µM (inactive); with LOX IMVI, 11.5 µM (inactive); with DU-145, 26.7 µM (inactive); in the assay with A498 it was 1.6 µM (inactive). Also, the GI50 is 35.6 µM (inactive) in the assay on HCC 2998; 10.4 µM (inactive) with OVCAR-8; 1.12 µM (inactive) in the assay with MOLT-4; 27.7 µM (inactive) with HOP-62; 32.5 µM (inactive) in the assay on SN12C; 27.9 µM (inactive) with HOP-92. For the same compound, the GI50 with TK-10 was 6.47 µM (inactive); in the assay with SK-OV-3 it was 29 µM (inactive); in the assay on Malme-3M it was 40.5 µM (inactive); in the assay with SF-539, 41.1 µM (inactive); in the assay on RPMI-8226, 11.4 µM (inactive); in the assay on MDA-MB-231 it was 26.2 µM (inactive). The GI50 in the assay with OVCAR-4 is 24.4 µM (inactive).

As to `COC1CC(C)C(OC)c2cc(O)cc(c2O)NC(=O)/C(C)=C/C=C\C(C)C(OC(N)=O)/C(C)=C\C(C)C1OC` (stereo not given), the GI50 was 0.336 µM (active) with SK-MEL-28; 1.24 µM (inactive) in the assay on SF-295; 0.471 µM (active) in the assay with LOX IMVI; 0.231 µM (active) in the assay on DU-145; 3.49 µM (inactive) in the assay with A498; 0.951 µM (active) in the assay with HCC 2998. For the same compound, the GI50 in the assay on OVCAR-8 was 7.28 µM (inactive); in the assay on MOLT-4, 0.083 µM (active); in the assay with HOP-62, 0.579 µM (active); in the assay with SN12C, 0.36 µM (active); in the assay on HOP-92, 0.347 µM (active); in the assay with TK-10, 6.97 µM (inactive). In addition, the GI50 in the assay on SK-OV-3 is 0.292 µM (active); in the assay with Malme-3M, 0.225 µM (active); in the assay on SF-539 it was 0.417 µM (active); in the assay on RPMI-8226, 0.152 µM (active); in the assay with MDA-N, 0.144 µM (active); with OVCAR-4 it was 3.2 µM (inactive).

For `COC(=O)C1=C(O)C(C(=O)OC)[C@]2(O)[C@H](C(=O)OC)[C@H]1C[C@@H](c1cccc(OC)c1)[C@H]2C(=O)OC` (stereo not given in full), the GI50 is 30.4 µM (inactive) in the assay on NCI-H23; 37.6 µM (inactive) in the assay with SK-MEL-28; 35.8 µM (inactive) in the assay on SF-295; 36.5 µM (inactive) with LOX IMVI; 21.4 µM (inactive) with A498; 20.5 µM (inactive) with HCC 2998. The GI50 with OVCAR-8 is 31.6 µM (inactive); with MOLT-4, 20.4 µM (inactive); with HOP-62, 31 µM (inactive); in the assay on SN12C, 22.9 µM (inactive); in the assay with HOP-92, 47 µM (inactive); in the assay on TK-10 it was 34 µM (inactive). Moreover, the GI50 with SK-OV-3 is 28.2 µM (inactive); in the assay with Malme-3M it was 24.5 µM (inactive); with SF-539 it was 32.3 µM (inactive); in the assay on RPMI-8226, 19.4 µM (inactive); in the assay with MDA-MB-231, 27.2 µM (inactive); with MDA-N it was 15.6 µM (inactive). Further, the GI50 in the assay with OVCAR-4 is 29 µM (inactive).

Take `CN(C)CCNC(=O)c1nc([N+](=O)[O-])cn1C`: the GI50 in the assay on NCI-H23, with SK-MEL-28, with SF-295, in the assay with LOX IMVI, with DU-145 and in the assay on A498 was > 100 µM (inactive) in each case. The GI50 with HCC 2998, with OVCAR-8, in the assay with MOLT-4, in the assay with HOP-62, in the assay on SN12C and with HOP-92 was > 100 µM (inactive) each time. For the same compound, the GI50 with TK-10, in the assay with SK-OV-3, in the assay on Malme-3M, in the assay with SF-539, with RPMI-8226 and in the assay with MDA-MB-231 was > 100 µM (inactive) in each case. Besides, the GI50 in the assay with OVCAR-4 was > 100 µM (inactive).

Take `CN1CCN(C(=S)N(C(=O)c2ccc(Cl)cc2)C2CCCCC2)CC1`: the GI50 with NCI-H23, with SK-MEL-28, with SF-295, in the assay on LOX IMVI, with DU-145 and in the assay with HCC 2998 was > 100 µM (inactive) in each case. The GI50 in the assay with OVCAR-8 is > 100 µM (inactive); with MOLT-4, 63.1 µM (inactive); with SN12C, > 100 µM (inactive); with HOP-92, > 100 µM (inactive); with TK-10, > 100 µM (inactive); in the assay on Malme-3M, > 100 µM (inactive). The GI50 in the assay with RPMI-8226, in the assay with MDA-MB-231, with MDA-N and in the assay on OVCAR-4 was > 100 µM (inactive) in each case.

Turning to `C[C@@H](NC(C#N)c1ccco1)c1ccccc1` (stereo not given in full), the GI50 was > 100 µM (inactive) in the assay with NCI-H23; > 100 µM (inactive) with SK-MEL-28; > 100 µM (inactive) with SF-295; > 100 µM (inactive) in the assay on DU-145; > 100 µM (inactive) in the assay with A498; 32.7 µM (inactive) with HCC 2998. The GI50 was > 100 µM (inactive) in the assay with OVCAR-8; > 100 µM (inactive) in the assay with MOLT-4; > 100 µM (inactive) with HOP-62; > 100 µM (inactive) in the assay on SN12C; 30.4 µM (inactive) in the assay on HOP-92; > 100 µM (inactive) in the assay on TK-10. The GI50 with SK-OV-3, with Malme-3M, in the assay on SF-539, in the assay on RPMI-8226 and in the assay with MDA-N was > 100 µM (inactive) in each case.

Consider `COc1cc([N+](=O)[O-])c(S(=O)(=O)O)cc1-n1nc(C(=O)Nc2ccccc2)n[n+]1-c1cc(S(=O)(=O)[O-])c([N+](=O)[O-])cc1OC`, for which the GI50 was > 100 µM (inactive) with NCI-H23; > 100 µM (inactive) in the assay on SK-MEL-28; > 100 µM (inactive) in the assay with SF-295; 9.84 µM (inactive) with LOX IMVI; > 100 µM (inactive) with DU-145; > 100 µM (inactive) in the assay on OVCAR-8. In addition, the GI50 in the assay on MOLT-4, in the assay on HOP-62, in the assay with SN12C, with HOP-92, with TK-10 and in the assay with SK-OV-3 was > 100 µM (inactive) each time. In addition, the GI50 with Malme-3M, with RPMI-8226, with MDA-N and in the assay on OVCAR-4 was > 100 µM (inactive) throughout.

Regarding `Cc1ccc(-n2nnc(C(N)=O)c2O)cc1`, the GI50 with NCI-H23, in the assay on SK-MEL-28, in the assay with SF-295, in the assay with DU-145, in the assay on HCC 2998 and in the assay with OVCAR-8 was > 100 µM (inactive) each time. The GI50 with MOLT-4, with HOP-62, with SN12C, with TK-10, in the assay with SK-OV-3 and with Malme-3M was > 100 µM (inactive) each time. Also, the GI50 in the assay on RPMI-8226, in the assay with MDA-MB-231, in the assay with MDA-N and in the assay with OVCAR-4 was > 100 µM (inactive) throughout.

As for `Nc1ccc2c(c1)Cc1ccccc1-2`, the GI50 is 47.6 µM (inactive) with NCI-H23; > 100 µM (inactive) with SK-MEL-28; > 100 µM (inactive) in the assay with SF-295; 80.7 µM (inactive) in the assay with LOX IMVI; 49 µM (inactive) in the assay with A498; > 100 µM (inactive) with HCC 2998. The GI50 is > 100 µM (inactive) with OVCAR-8; 34.7 µM (inactive) with MOLT-4; 60 µM (inactive) in the assay on HOP-62; > 100 µM (inactive) with SN12C; 28.9 µM (inactive) in the assay on HOP-92; > 100 µM (inactive) in the assay on TK-10. In addition, the GI50 with SK-OV-3 is > 100 µM (inactive); in the assay on Malme-3M it was > 100 µM (inactive); in the assay on SF-539 it was 73.6 µM (inactive); in the assay with MDA-MB-231 it was > 100 µM (inactive); with MDA-N it was > 100 µM (inactive); with OVCAR-4 it was > 100 µM (inactive).
